The text below walks through data of US12514900B2, “Method to identify responders to osteoarthritis therapeutics” (OrthoTrophix, Inc., priority 2020, dated 2026).

Series [1] relates to subjects with knee OA. As to conditions: cited from earlier work.
In the next series the test system is human and rat bone cells. The conditions noted are these: human and rat/murine orthologues; cited from earlier work.
For series [2], the target named is integrin αVβ3 expressed by osteocytes (Homo sapiens, UniProt P05106+P06756). The conditions noted are these: cited from earlier work.
Series [3] relates to subjects with bilateral knee osteoarthritis. The conditions noted are these: human, in vivo.
Method: Eighteen (18) orthopedic, rheumatologic and family practice centers in the U.S. participated in the study.
On the first dosing day, the randomized subjects were assessed by physical examinations and vital signs. Further, they completed the Knee injury and Osteoarthritis Outcome Score (KOOS), which includes the Western Ontario and McMaster Universities Osteoarthritis Index (WOMAC). The KOOS questionnaire assesses knee-specific activities of daily living, sports and recreation, knee-related quality of life, other symptoms such as stiffness, and knee pain. […] After assessments were completed, subjects received one intra-articular injection in each knee, with each injection prepared from the vial(s) marked for that knee. […] Subjects were monitored for adverse events during the injections and for a few hours after the injections. Vital signs were also monitored after the injections.
On the 7th, 14th, and 21st days after the first dosing, subjects received the second, third, and fourth (last) dosing of the same study materials, respectively. Safety and adverse event assessments were obtained as on the first dosing day.
Subjects returned to their respective study sites at 3, 6 and 12 months after the first dosing day for follow-up evaluations. In addition, the study sites monitored the subject's condition through telephone contact 9 months after the first dosing day. During the 3, 6, and 12 months post-treatment, subjects were evaluated on site with physical examinations, vital signs, serum chemistries, as well as completing patient-reported outcomes including the KOOS. Adverse events and concomitant medications were recorded. MRIs of both knees were obtained during the 6 and 12-month visits.
In series [4] the test system is subjects with knee OA. As to conditions: cited from earlier work. The source holds these as a separate data set.

Where no end group is shown, it is not given here.

Chain of integrin αVβ3 expressed by osteocytes (P06756 31-889 limits assumed): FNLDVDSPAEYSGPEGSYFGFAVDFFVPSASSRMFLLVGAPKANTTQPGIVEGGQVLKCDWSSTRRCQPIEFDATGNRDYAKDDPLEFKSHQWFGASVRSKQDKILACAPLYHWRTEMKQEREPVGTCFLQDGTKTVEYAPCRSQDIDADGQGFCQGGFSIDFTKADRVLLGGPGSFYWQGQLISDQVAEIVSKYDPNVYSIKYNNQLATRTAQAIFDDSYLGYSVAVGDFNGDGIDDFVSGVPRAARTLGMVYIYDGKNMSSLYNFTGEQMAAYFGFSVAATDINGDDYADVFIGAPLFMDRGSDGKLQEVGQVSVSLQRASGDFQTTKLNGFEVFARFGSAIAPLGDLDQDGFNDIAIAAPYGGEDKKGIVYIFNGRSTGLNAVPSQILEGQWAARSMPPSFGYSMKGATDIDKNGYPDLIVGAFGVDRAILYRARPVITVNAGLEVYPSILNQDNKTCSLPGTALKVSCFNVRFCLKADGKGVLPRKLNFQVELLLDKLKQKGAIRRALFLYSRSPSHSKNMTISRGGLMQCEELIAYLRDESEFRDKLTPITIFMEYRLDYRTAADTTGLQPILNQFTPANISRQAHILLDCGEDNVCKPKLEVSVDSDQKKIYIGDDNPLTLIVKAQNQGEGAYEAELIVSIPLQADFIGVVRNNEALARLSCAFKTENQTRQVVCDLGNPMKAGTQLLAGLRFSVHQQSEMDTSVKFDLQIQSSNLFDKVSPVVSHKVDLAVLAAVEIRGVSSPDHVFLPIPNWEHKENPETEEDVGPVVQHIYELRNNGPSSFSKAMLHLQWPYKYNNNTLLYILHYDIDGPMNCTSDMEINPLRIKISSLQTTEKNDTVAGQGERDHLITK
Chain of integrin αVβ3 expressed by osteocytes (P06756 891-1048 limits assumed): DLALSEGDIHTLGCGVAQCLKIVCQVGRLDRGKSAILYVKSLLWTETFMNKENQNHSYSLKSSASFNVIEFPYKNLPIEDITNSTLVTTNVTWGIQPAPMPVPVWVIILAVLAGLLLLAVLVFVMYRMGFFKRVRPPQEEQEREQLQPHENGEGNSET
Chain of integrin αVβ3 expressed by osteocytes (P05106 27-788): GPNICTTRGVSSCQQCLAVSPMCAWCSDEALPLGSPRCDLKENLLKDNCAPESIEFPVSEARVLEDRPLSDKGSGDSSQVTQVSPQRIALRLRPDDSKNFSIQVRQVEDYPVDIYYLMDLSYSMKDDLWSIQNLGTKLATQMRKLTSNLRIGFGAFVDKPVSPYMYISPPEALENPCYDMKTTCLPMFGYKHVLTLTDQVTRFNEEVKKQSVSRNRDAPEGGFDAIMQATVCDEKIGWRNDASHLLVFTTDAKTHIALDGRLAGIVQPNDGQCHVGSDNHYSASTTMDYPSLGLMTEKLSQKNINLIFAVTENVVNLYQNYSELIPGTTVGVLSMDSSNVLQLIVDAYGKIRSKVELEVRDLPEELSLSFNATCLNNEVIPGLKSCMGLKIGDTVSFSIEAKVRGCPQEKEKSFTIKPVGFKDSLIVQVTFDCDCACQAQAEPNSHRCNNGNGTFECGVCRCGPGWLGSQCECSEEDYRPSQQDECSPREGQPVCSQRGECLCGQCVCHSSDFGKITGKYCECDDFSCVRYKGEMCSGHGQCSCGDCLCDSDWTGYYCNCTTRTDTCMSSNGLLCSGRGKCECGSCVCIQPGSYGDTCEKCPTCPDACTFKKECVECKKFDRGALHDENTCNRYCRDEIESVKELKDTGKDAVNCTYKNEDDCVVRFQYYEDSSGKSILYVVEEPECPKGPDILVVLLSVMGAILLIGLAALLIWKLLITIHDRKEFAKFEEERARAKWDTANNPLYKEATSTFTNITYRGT

Regarding `O=P(O)(O)C(O)(Cc1cccnc1)P(=O)(O)O` [risedronate], the Effects on pain result with subjects with knee OA [1] (largest study, n=2483 (Bingham 2006)) is “favoring placebo over active drug”.

As for `N#Cc1c(N(CC(=O)[O-])CC(=O)[O-])sc(C(=O)[O-])c1CC(=O)[O-].[Sr+2].[Sr+2]` [strontium ranelate], in the series on subjects with knee OA [1] (human, in vivo), the “Risk of myocardial infarction” value is “increase the risk of myocardial infarction”.

For PDLLVRGDNDVPPFSGDGQHFMH [SEQ ID No: 14], the “Biological activities in bone cells of the other species” value in the series with human and rat bone cells is on record as “interchangeably show biological activities in the bone cells of the other species”.

As to PDLQERGDNDISPFSGDGQPFKD [SEQ ID No: 12], the “Binding to integrin αVβ3” value in series [2] is “selectively bind to integrin αVβ3”.

With TDLQERGDNDISPFSGDGQPFKD [SEQ ID No: 10], in series [3], the Safety and tolerability result was “safe and well tolerated”; the “Severe adverse events related to the peptide” value is “no severe adverse events”; the Treatment-related adverse events entry is given as “mild or moderate, transient”.

B1: Fibroblast Growth Factor-18 (protein, UniProt O76093 28-207, looked up)
Fibroblast growth factor 18: EENVDFRIHVENQTRARDDVSRKQLRLYQLYSRTSGKHIQVLGRRISARGEDGDKYAQLLVETDTFGSQVRIKGKETEFYLCMNRKGKLVGKPDGTSKECVFIEKVLENNYTALMSAKYSGWYVGFTKKGRPRKGPKTRENQQDVHFMKRYPKGQPELQKPFKYTTVTKRSRRIRPTHPA
notes: growth factor tested for cartilage regeneration in knee OA
For B1, in the series on subjects with knee OA [4], the “Clinical outcomes such as knee function or pain vs placebo” value is listed as “no significant improvement” and the Tibiofemoral cartilage thickness entry was “small but statistically significant increase”.
